In paper PMC8619914, “Development of Novel Peptides for the Antimicrobial Combination Therapy against Carbapenem-Resistant Acinetobacter baumannii Infection” (Pharmaceutics, 2021):
Converted amounts (≈) assume the structure as drawn. Read-outs that look alike come from different tables or passages of the source. Where no end group is shown, it is not given here.

Assays:
CRAB C1 biofilm = experiment: Biofilm inhibition, crystal violet; type: cell-based, carbapenem-resistant Acinetobacter baumannii; details: Acinetobacter baumannii, read-out: percentage of biofilm inhibition
Method: CRAB C1 cells (2 × 10^5 CFU·mL^−^1) were incubated with PapMA-3 and antibiotics in a tissue-culture well plate in MH medium containing 0.2% glucose for 16 h at 37 °C. The cells were stained with 0.1% (w/v) crystal violet in 0.25% (v/v) acetic acid for 1 h at room temperature; the dye complex was dissolved with ethanol. Absorbance at 595 nm was measured using SpectraMAX microplate reader (Molecular Devices) to quantify the biofilm formation.
Biofilms were quantified by staining with crystal violet. (A) Absorbance of crystal violet-stained biofilms with treatment of PapMA-3 and antibiotics at a concentration range of 32 to 512 μg·mL^−1, assessed at 595 nm. […] CRAB C1 without peptides or antibiotics served as the control (red). Statistical analysis was performed using two-way ANOVA with Dunnett’s comparison test. The values are expressed as the mean ± SEM of three independent experiments and are statistically significant at ** p < 0.01 and *** p < 0.001. ns, not significant.

CRAB C2 [1] = experiment: microbe, parasite or virus in culture; details: 16 h; for MIC: Acinetobacter baumannii, read-out: MIC alone, CRAB C2
Method: (§1) The synergistic effects of AMPs and antibiotics were measured using checkerboard assays. Serial dilutions of PapMA-3 and antibiotics were performed from 1 to […] of the MIC. Samples were then cross-mixed and cultured in MH medium with 2 × 10^5 CFU·ml^−^1 bacteria. Results were recorded after 16 h of incubation at 37 °C. The fractional inhibitory concentration index (FICI) was calculated according to the European Committee on Antimicrobial Susceptibility (EUCAST).
(§2) The ability of PapMA-3 to facilitate these antibiotics in penetrating the bacterial membranes of Gram-negative bacteria was investigated.

CRAB C5 [2] = experiment: microbe, parasite or virus in culture; details: 16 h; for MIC: Acinetobacter baumannii, read-out: MIC alone, CRAB C5
Method: as §1, §2

CRAB C1 [3] = experiment: microbe, parasite or virus in culture; details: 16 h; for MIC: Acinetobacter baumannii, read-out: MIC alone, CRAB C1
Method: as §1, §2

CRAB C3 [4] = experiment: microbe, parasite or virus in culture; details: 16 h; for MIC: Acinetobacter baumannii, read-out: MIC alone, CRAB C3
Method: as §1, §2

CRAB C4 [5] = experiment: microbe, parasite or virus in culture; details: 16 h; for MIC: Acinetobacter baumannii, read-out: MIC alone, CRAB C4
Method: as §1, §2

CRAB C2 [6] = experiment: microbe, parasite or virus in culture; details: 16 h; for MIC: Acinetobacter baumannii, read-out: Minimum Inhibitory Concentration, CRAB C2
Source text: (§3) The Gram-negative bacterial strain Escherichia coli (KCTC 1682) and Gram-positive bacterial strain Staphylococcus aureus (KCTC 1621) were purchased from the Korean Collection for Type Cultures (Jeongeup, Korea). Acinetobacter baumannii (KCCM 40203) were purchased from Korea Culture Center of Microorganisms (Seoul, Korea). Additionally, five carbapenem-resistant Acinetobacter baumanii C1–C5 (CRAB C1–C5), which have the OXA-23 gene with carbapenem-resistance were collected from the patients with CRAB bacteremia, who presented symptoms and signs of infection at Korea University Anam Hospital (Seoul, Korea) (IRB registration no. 2020AN0157). The minimum inhibitory concentrations (MIC) of the AMP and antibiotics against the various bacterial strains were assessed using the serial dilution method on Muller–Hinton (MH) media, as described previously. […] Absorbance at 600 nm was measured using a SpectraMAX microplate reader (Molecular Devices, San Jose, CA, USA).
(§4) Measurement of the minimum inhibitory concentrations (MIC) was conducted to determine the effect of the hydrophobicity of each antimicrobial peptide on its antimicrobial activity. MIC was defined as the minimum concentration that killed more than 99% of bacteria; it was measured against two standard Gram-negative bacteria (E. coli and A. baumanii), five clinically isolated CRAB (C1–C5), and one Gram-positive bacteria (S. aureus).

[7] = test system: Acinetobacter baumannii (KCCM 40203); experiment: microbe, parasite or virus in culture; details: for MIC: Acinetobacter baumannii, KCCM40203, 16 h, read-out: Minimum Inhibitory Concentration, A. baumanii
Source text: as §3, §4

CRAB C5 [8] = experiment: microbe, parasite or virus in culture; details: 16 h; for MIC: Acinetobacter baumannii, read-out: Minimum Inhibitory Concentration, CRAB C5
Source text: as §3, §4

[9] = test system: Escherichia coli (KCTC 1682); experiment: microbe, parasite or virus in culture; details: for MIC: Escherichia coli, KCTC1682, 16 h, read-out: Minimum Inhibitory Concentration, E. coli
Source text: as §3, §4

CRAB C1 [10] = experiment: microbe, parasite or virus in culture; details: 16 h; for MIC: Acinetobacter baumannii, read-out: Minimum Inhibitory Concentration, CRAB C1
Source text: as §3, §4

[11] = test system: Staphylococcus aureus (KCTC 1621); experiment: microbe, parasite or virus in culture; details: for MIC: Staphylococcus aureus, KCTC1621, 16 h, read-out: Minimum Inhibitory Concentration, S.aureus
Source text: as §3, §4

CRAB C3 [12] = experiment: microbe, parasite or virus in culture; details: 16 h; for MIC: Acinetobacter baumannii, read-out: Minimum Inhibitory Concentration, CRAB C3
Source text: as §3, §4

CRAB C4 [13] = experiment: microbe, parasite or virus in culture; details: 16 h; for MIC: Acinetobacter baumannii, read-out: Minimum Inhibitory Concentration, CRAB C4
Source text: as §3, §4

[14] = test system: Gram-negative bacterial strains; experiment: organism not typed; details: for MIC: read-out: GM (mean MIC of Gram-negative bacterial strains)
Source text: as §3
Geometric means (GM) were calculated to compare the relative antimicrobial activities of the analogs against Gram-negative bacteria. […] Next, the antibacterial mechanisms of peptides were investigated.

HaCaT cells = experiment: Cytotoxicity, WST-8 Cell Proliferation Assay; type: cell-based, human; details: 32 μg·mL^−1, 24 h and 48 h, compared to blank control
Method: (§5) Human embryonic kidney (HEK)-293 cells, purchased from Korean cell line bank (Seoul, Korea) were cultured in Dulbecco’s modified Eagle’s medium (DMEM) (Welgene, Gyeong-san, Korea) with 10% fetal bovine serum, 1% penicillin-streptomycin at 37 °C in a humidified 5% CO2 incubator as described previously. The cytotoxicity of the six PapMA peptides and melittin was determined using WST-8 Cell Proliferation Assay Kit (Biomax Co, Ltd., Seoul, Korea), according to the manufacturer’s instructions. […] The absorbance was measured at 450 nm using a SpectraMAX microplate reader (Molecular Devices).
Figure 10 Cytotoxicity of PapMA-3 (A) Cytotoxicity of PapMA-3 against HEK-293 cells at 24 h and 48 h. (B) Cytotoxicity of PapMA-3 against HaCaT cell at 24 h and 48 h. Statistical analysis was performed using two-way ANOVA with Dunnett’s comparison test. The values are expressed as the mean ± SEM of three independent experiments and are statistically significant at * p < 0.05; *** p < 0.001; ns, not significant.

CRAB C1 [15] = details: 50% human serum in MH medium, 16 h, 37 °C; measure of serum stability
Method: Antibacterial activity of PapMA-3 in combination with imipenem was measured against CRAB C1 in the presence of 50% human serum. The treated cells were incubated for 16 h at 37 °C, and the absorbance at 600 nm was measured using a SpectraMAX microplate reader (Molecular Devices).

HEK-293 cells = experiment: Cytotoxicity, WST-8 Cell Proliferation Assay; type: cell-based, human; details: 64 μg·mL^−1, 24 h, WST-8
Method: as §5
Figure 4 Cytotoxicity of PapMA analogs. (A) Cytotoxicity of PapMA and its analogs against HEK-293 cell. […] (B) Hemolysis activity of PapMA analogs against sRBC. The peptide was serially diluted and incubated with sRBC for 1 h with melittin as a control. Statistical analysis was performed using two-way ANOVA with Dunnett’s comparison test. The values are expressed as the mean ± SEM of three independent experiments and are statistically significant at ** p < 0.01; and *** p < 0.001. ns, not significant.

CRAB C1 [16] = experiment: FE-SEM of membrane damage; type: cell-based, carbapenem-resistant Acinetobacter baumannii; details: erythromycin 128 μg·mL^−1 alone, 1 h and 2 h
Method: The cells were washed using PBS, fixed in 1% osmium tetroxide for 1 h, and dehydrated using a graded ethanol series. After dehydration, ethanol contents in the sample were replaced with varying ratio (2:1, 1:1, 1:2, 0:1 v/v) of ethanol–isoamyl acetate mixture. The cells were fixed on a glass slide with hexamethyldisilzane, dried under reduced pressure, and platinum-coated; they were visualized using an FE-SEM (SU8020; Hitachi, Tokyo, Japan).
Figure 7 FE-SEM images of CRAB C1 treated with PapMA-3. (A) Only CRAB C1. […] (F–I) same experiments after incubation for 1 h, respectively.

[17] = checkerboard table, single agent, MH medium, 37 °C
[18] = MH media, 2 × 10^5 CFU·mL^−1, 37 °C, absorbance 600 nm

| Molecule | MIC (CRAB C2 [1]) [µg/mL] | MIC (CRAB C5 [2]) [µg/mL] | MIC (CRAB C1 [3]) [µg/mL] | MIC (CRAB C3 [4]) [µg/mL] | MIC (CRAB C4 [5]) [µg/mL] | MIC (CRAB C2 [6]) [µg/mL] | MIC [7] [µg/mL] | MIC (CRAB C5 [8]) [µg/mL] | MIC [9] [µg/mL] | MIC (CRAB C1 [10]) [µg/mL] | MIC [11] [µg/mL] | MIC (CRAB C3 [12]) [µg/mL] | MIC (CRAB C4 [13]) [µg/mL] | MIC [14] [µg/mL] | also measured |
| --- | --- | --- | --- | --- | --- | --- | --- | --- | --- | --- | --- | --- | --- | --- | --- |
| CN[C@H](CC(C)C)C(=O)N[C@H]1C(=O)N[C@@H](CC(N)=O)C(=O)N[C@H]2C(=O)N[C@H]3C(=O)N[C@H](C(=O)N[C@H](C(=O)O)c4cc(O)cc(O)c4-c4cc3ccc4O)[C@H](O)c3ccc(c(Cl)c3)Oc3cc2cc(c3O[C@@H]2O[C@H](CO)[C@@H](O)[C@H](O)[C@H]2O[C@H]2C[C@](C)(N)[C@H](O)[C@H](C)O2)Oc2ccc(cc2Cl)[C@H]1O [Vancomycin] | 256 | 256 | 256 | 256 | 512 | 256 (≈ 177 µM) | 256 (≈ 177 µM) | 256 (≈ 177 µM) | 128 (≈ 88.3 µM) | 256 (≈ 177 µM) | 0.5 (≈ 0.345 µM) | 256 (≈ 177 µM) | 512 (≈ 353 µM) | 274 | inhibition at 32 µg/mL (CRAB C1 biofilm): 77.2% |
| RWKIFKKIPKFLHSAKKW-NH2 [PapMA-3] |  |  |  |  |  |  |  |  |  |  |  |  |  |  | cell proliferation and viability, HaCaT (HaCaT cells): remained unaltered; Minimum Inhibitory Concentration, CRAB C1, + Serum (50%) (CRAB C1 [15]): 64 µg/mL; MIC alone, CRAB C2 (CRAB C2 [1]; [17]): 16 µg/mL; MIC alone, CRAB C5 (CRAB C5 [2]; [17]): 16 µg/mL; MIC alone, CRAB C1 (CRAB C1 [3]; [17]): 16 µg/mL; MIC alone, CRAB C3 (CRAB C3 [4]; [17]): 16 µg/mL; MIC alone, CRAB C4 (CRAB C4 [5]; [17]): 32 µg/mL; Minimum Inhibitory Concentration, CRAB C2 (CRAB C2 [6]; [18]): 16 µg/mL; Minimum Inhibitory Concentration, A. baumanii ([7]; KCCM 40203, 16 h): 16 µg/mL; Minimum Inhibitory Concentration, A. baumannii, MH Media ([7]; KCCM 40203, 16 h): 16 µg/mL; Minimum Inhibitory Concentration, CRAB C5 (CRAB C5 [8]; [18]): 16 µg/mL; Minimum Inhibitory Concentration, E. coli, MH Media ([9]; KCTC 1682, 16 h): 16 µg/mL; Minimum Inhibitory Concentration, E. coli ([9]; MH media, 2 × 10^5 CFU·mL^−1, 37 °C, 16 h, absorbance 600 nm, MIC kills more than 99% of bacteria): 16 µg/mL; Minimum Inhibitory Concentration, CRAB C1, MH Media (CRAB C1 [10]; MH media without serum, 37 °C): 16 µg/mL; Minimum Inhibitory Concentration, CRAB C1 (CRAB C1 [10]; [18]): 16 µg/mL; Minimum Inhibitory Concentration, S.aureus ([11]; KCTC 1621, 16 h): 32 µg/mL; Minimum Inhibitory Concentration, CRAB C3 (CRAB C3 [12]; [18]): 16 µg/mL; Minimum Inhibitory Concentration, CRAB C4 (CRAB C4 [13]; [18]): 32 µg/mL; survival rate of HEK-293 cells (HEK-293 cells): 100%; GM (mean MIC of Gram-negative bacterial strains) ([14]; seven Gram-negative strains, 256 assumed for MIC > 128 and 1024 for MIC > 512 μg·mL^−1): 18 µg/mL |
| CC[C@H]1OC(=O)[C@H](C)[C@@H](O[C@H]2C[C@@](C)(OC)[C@@H](O)[C@H](C)O2)[C@H](C)[C@@H](O[C@@H]2O[C@H](C)C[C@H](N(C)C)[C@H]2O)[C@](C)(O)C[C@@H](C)C(=O)[C@H](C)[C@@H](O)[C@]1(C)O [Erythromycin] | 512 | > 512 | > 512 | 512 | > 512 | 512 (≈ 698 µM) | 32 (≈ 43.6 µM) | > 512 | 16 (≈ 21.8 µM) | > 512 | 0.25 (≈ 0.341 µM) | 512 (≈ 698 µM) | > 512 | 592 | membrane integrity of CRAB C1 (FE-SEM) (CRAB C1 [16]): not altered; inhibition at 32 µg/mL (CRAB C1 biofilm; 32 μg·mL^−1, CRAB C1, compared to the control): 37.7% |
